pIC50: −log10 of the molar value. “Also recorded” adds a separate entry of the source. Read-outs that look alike come from different tables or passages of the source.
Tests used:
[1] = test system: Gli-Luciferase reporter in Ptch1-/- MEFs; test: 8xGli-Luciferase reporter assay in Ptch1-/- MEFs; type: cell-based, mouse; conditions: for inhibition at 30 µM / pIC50: Mus musculus; for inhibition at 30 µM: compared to DMSO; for pIC50: read-out: IC50 Gli-Luciferase assay (range, n); for Inhibition of Gli-Luciferase (yes/no): single-dose screen at 30 μM (vismodegib 100 nM)
Protocol: (§1) Antagonist candidates were tested using Ptch1^-/- reporter mouse embryonic fibroblasts (MEFs). In Ptch1^-/- cells, the Hh pathway is constitutively activated as a result of deletion of Patched-1, the Hedgehog receptor and a functional inhibitor of Smo. The reporter cells were engineered to express the 8XGli-Luciferase reporter that faithfully monitors levels of Gli-mediated transcriptional activity as a readout of Hedgehog signalling. Firefly Luciferase is therefore constitutively expressed in these cells and its expression is inhibited by Smo antagonists such as cyclopamine. In the initial test for activity, we screened the 21 docking hits at a dose of 30 μM. […] Their ability to repress the pathway was further confirmed by quantifying transcript levels of Gli1, a target gene of the Hedgehog pathway, using qPCR (Fig 1C and S1 Table).
Ptch1^-/- MEFs stably expressing the Gli-Luciferase reporter and constitutive Renilla Luciferase were used. The Gli-Luciferase reporter is a Firefly Luciferase reporter driven by 8xGli consensus binding site in its promoter, cloned in a lentiviral plasmid carrying a puromycin resistance for selection. For the assay, 5x10^4 cells/well were plated in 48-well plates. The next day, the confluent cells were serum-starved with plain DMEM for 24 h. Drugs and compounds were added to the indicated final concentration and incubated for 24 h, each condition in duplicate. For the assay, Promega Dual Glow reagents were used. Media was removed and cells were lysed in 50 μL Passive Lysis Buffer for 10 min. 10 μL of lysate was assayed in black plates with 10 μL of each substrate, in duplicate. Luminescence was measured with an EnVision 2100 (Perkin Elmer). Firefly Luciferase luminescence was divided by the Renilla Luciferase luminescence, then normalized to vehicle condition to obtain the fold change in reporter activity.

[2] = Aggregation counter-screens (DLS, centrifugation, unrelated enzymes), overall outcome; type: physicochemical; conditions: enzyme counter-screens
Protocol: All the antagonists with low micromolar IC50 were counter-screened for colloidal aggregation, a common mechanism of artefactual activity in early ligand discovery. […] These observations highlight the importance of counter-screening for this artefactual mechanism of action when evaluating new Smoothened antagonists.
(§2) The assays were performed as always with the addition of a centrifugation step. The antagonists were diluted in media to their final concentration. Half the solution was used as standard treatment: the media in wells was replaced with the media containing the drugs. The other half of the solution was then centrifuged for 20 min at 21,000g. The supernatant was used to replace the media in the wells.
(§3) Compounds 13b, 19b, 20b, 25b, 27b, 32b, 37b, 40b and 45b were diluted with both filtered DMEM and KPi, with a final concentration of 1% DMSO. Measurements were made using a DynaPro Plate Reader II system (Wyatt Technology) with a 60 mW laser at ~830 nm in either 96-well or 384-well plates; this particular instrument had been modified by Wyatt Technology to have a larger laser beam width that is appropriate for detecting large colloidal particles.
Both DMEM and KPi were used as buffer.

mouse Smoothened = mouse Smoothened (Mus musculus, UniProt P56726); conditions: for Binding (yes/no), BODIPY-cyclopamine displacement: HEK293 mSmo-mCherry
Protocol: Using a stable line enabling the inducible expression of Smo-mCherry, we tested whether well-behaved, non-aggregating antagonists can specifically displace BODIPY-cyclopamine bound to Smoothened using flow cytometry.
Left: average cell fluorescence was measured by flow cytometry and plotted against antagonist concentration. Representative curve are shown.
A 293 stable cell line expressing tetracycline-inducible mouse Smoothened with mCherry fused to its C-terminus was used for these experiments. Cells were grown to confluence in the presence of 1 μg/mL tetracycline for 24 h. Cells were then incubated with 10 nM BODIPY-Cyclopamine and compounds for 2 h at 37°C. For FACS, cells were first trypsinized, fixed with 4% paraformaldehyde for 20 min, washed with TBS + 0.1% Triton X-100 and then sorted (FACS). BODIPY fluorescence was measured on the FACS Fortessa and FACS data was analyzed with FlowJo software. BODIPY fluorescence in control HEK293 was used to set the background threshold. Mean fluorescence was plotted against the compound concentration to calculate its IC50. For microscopy, fixed cells were imaged. Live cells were washed with PBS before fixing.

[3] = test system: Gli1 expression in Ptch1-/- MEFs; test: qPCR of Gli1 expression in Ptch1-/- MEFs; type: cell-based, mouse; conditions: for pIC50: Mus musculus
Protocol: as §1
(§4) Ptch1^-/- MEFs or C3H10T1/2 SMO cells (overexpression of mouse Smo wt or mouse Smo D477H using a retroviral vector) were plated at a density of 2x10^5 cells/well in 12-well plates. The next day, the confluent cells were serum-starved with plain DMEM for 24 h before drugs and compounds were added to the indicated final concentration. RNA was extracted using Trizol (Life Technologies, 15596–018) after 24 h. 1 μg of RNA was DNase-treated (Life Technologies, 18047–019) before being reverse transcribed into cDNA (High-Capacity Reverse Transcription kit, Life Technologies, 4368813). Real-time quantitative PCR reactions were performed on an ABI 7900HT in 384-well plates containing 20 ng cDNA, using Power SYBR Green PCR Master Mix (Life Technologies, 4367660). Relative Gli1 mRNA levels were calculated using the comparative Ct method, normalized to Gapdh mRNA. Primers used were validated as previously described.

[4] = test system: TOPFLASH Wnt-ß-catenin reporter (Frizzled receptors); test: TopFlash Wnt-ß-catenin reporter assay in HEK293T cells; conditions: Wnt3a-conditioned media
Protocol: We used HEK293T TopFlash cells, expressing a luciferase reporter under the control of a ß–catenin-responsive LEF/TCF promoter.
The assay was carried out in HEK293T, as described [71].

Smo wt = molecular target: T1, Smo wt (Mus musculus, UniProt P56726); test: Gli1 qPCR dose-response in C3H10T1/2 cells overexpressing Smo wt; type: cell-based; conditions: read-out: inhibition of Smo WT (dose-response, Fig 7G)
T1 construct: expressed in transfected cells; host or cells: C3H10T1/2 cells, retroviral transduction
Excerpt: (§5) Fig 7 Binding poses and inhibition of vismodegib-resistant Smo by 45b. (A) Side view of the complex of Smo structure (represented as purple surface, TM6 was cut) with LY2940680 in the orthosteric site (represented as light pink sticks). (B)-(F) Predicted binding modes against the Smo WT of compounds 3, 6, 44, 244 and 45b, respectively. LY2940680 is represented as light pink wires, the compounds as green sticks, hydrogen bonds as black dashed lines and important residues as sticks. […] C3H10T1/2 cells were transduced with retrovirus for the overexpression of Smo wt or Smo D477H. (H) Predicted binding modes of compound 45b against a model of D473H Smo.
as §4, with “1 μg of RNA was DNase-treated (Life Technologies, 18047–019) before being reverse transcribed into cDNA (High-Capacity Reverse Transcription kit, Life Technologies, 4368813).” left out, “Primers used were validated as previously described.” left out

[5] = molecular target: T2, mouse D477H mutant (equivalent to human D473H) of Smo (Mus musculus, UniProt P56726, D477H); test: Gli1 qPCR dose-response in C3H10T1/2 cells overexpressing Smo D477H; type: cell-based
T2 construct: expressed in transfected cells; host or cells: C3H10T1/2 cells, retroviral transduction
Excerpt: as §5
as §4, with “1 μg of RNA was DNase-treated (Life Technologies, 18047–019) before being reverse transcribed into cDNA (High-Capacity Reverse Transcription kit, Life Technologies, 4368813).” left out, “Primers used were validated as previously described.” left out

[6] = Dynamic Light Scattering (DLS); type: physicochemical; conditions: 1 μM
Protocol: as §3

Smoothened = molecular target: T3, Smoothened (Mus musculus, UniProt P56726); test: Centrifugation counter screen of Smo antagonism; type: cell-based; conditions: 20 min centrifugation; Gli-luciferase, Gli1 qPCR, bodipy-cyclopamine displacement
T3 construct: endogenous in cells; host or cells: Ptch1-/- MEFs with 8xGli-Luciferase reporter (inferred)
Protocol: as §2

Smo mutations at D473 = test system: Smo mutations at D473; design: method as in PMID 25008467; conditions: cited from earlier work
D473H mutant of Smo = test system: D473H mutant of Smo; design: method as in PMID 19726788; conditions: cited from earlier work
[7] = 24 h, read-out: IC50 Gli1 qPCR (range, n)

mouse Smoothened, sequence (P56726 33-793): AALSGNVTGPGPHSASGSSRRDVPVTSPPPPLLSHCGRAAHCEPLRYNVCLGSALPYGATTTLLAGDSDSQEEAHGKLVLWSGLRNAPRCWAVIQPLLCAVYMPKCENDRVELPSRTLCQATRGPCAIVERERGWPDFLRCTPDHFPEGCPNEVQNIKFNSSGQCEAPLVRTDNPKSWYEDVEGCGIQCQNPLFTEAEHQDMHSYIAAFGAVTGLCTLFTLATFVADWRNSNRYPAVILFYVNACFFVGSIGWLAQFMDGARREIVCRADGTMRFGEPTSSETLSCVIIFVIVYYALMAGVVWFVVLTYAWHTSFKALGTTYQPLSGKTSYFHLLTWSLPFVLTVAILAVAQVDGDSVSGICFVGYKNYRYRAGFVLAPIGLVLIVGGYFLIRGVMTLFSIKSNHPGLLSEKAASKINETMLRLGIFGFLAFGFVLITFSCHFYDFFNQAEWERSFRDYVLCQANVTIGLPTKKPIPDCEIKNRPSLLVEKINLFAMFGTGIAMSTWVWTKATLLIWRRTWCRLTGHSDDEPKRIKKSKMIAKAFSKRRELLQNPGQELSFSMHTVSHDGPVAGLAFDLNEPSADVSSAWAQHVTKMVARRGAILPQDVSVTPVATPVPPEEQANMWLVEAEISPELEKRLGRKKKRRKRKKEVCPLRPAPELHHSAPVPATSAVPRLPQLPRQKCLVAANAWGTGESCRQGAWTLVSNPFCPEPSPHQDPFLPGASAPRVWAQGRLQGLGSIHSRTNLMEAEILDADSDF
T3 sequence (P56726 33-793): as above
T2 sequence (P56726 33-793 D477H): as the sequence (P56726 33-793) above, with D445H counted along it
T1 sequence (P56726 33-793): as the sequence (P56726 33-793) above

pIC50 ([1]; 24 h)	Inhibition of Gli-Luciferase (yes/no) [1]	outcome of aggregation counter-screens [2]	pIC50 (mouse Smoothened)	pIC50 [3, 7]	SMILES	inhibition at 30 µM [1] [%]	Inhibition - Gli1 qPCR (yes/no) [3]	further results
4.37	yes	well-behaved antagonists	3.78	4.02	Cc1cccc(C(=O)Nc2cccc(NC(=O)Cc3cccnc3)c2)c1 [Compound 3]	> 50	yes	Binding (yes/no), BODIPY-cyclopamine displacement (mouse Smoothened): yes
4.68	yes	well-behaved antagonists		3.96	CN(C)c1ccc(CNC(=O)Nc2ccc(-n3ccnc3)nc2)cn1 [Compound 6]	> 50	yes	
4.96					COc1ccccc1C(=O)Nc1cccc(NC(=O)Cc2cccnc2)c1 [Compound 13b]			
4.65					c1ccc(CNc2cc(-c3ccc4c(c3)CNCC4)c3cc[nH]c3n2)nc1 [Compound 19b]			
5.64		well-behaved antagonists		5.11	NC(=O)c1cc(-c2cc(NCc3ccccn3)nc3[nH]ccc23)cs1 [Compound 25b]			
5.03		well-behaved antagonists		4.90	Cc1cc2c(-c3cc(NCc4ccccn4)nc4[nH]ccc34)ncnc2s1 [Compound 32b]			
5.27		well-behaved antagonists		5.06	NC(=O)c1cc(-c2cc(NCc3cccnc3)nc3[nH]ccc23)cs1 [Compound 37b]			
4.46	yes	well-behaved antagonists	4.81	4.85	COc1cc(-c2cc(NCc3ccccn3)nc3[nH]ccc23)ccc1O [Compound 44]	> 50	yes	Binding (yes/no), BODIPY-cyclopamine displacement (mouse Smoothened): yes
5.51		well-behaved antagonists	4.90	5.28	CSc1nc(C)cc(-c2cc(NCc3ccccn3)nc3[nH]ccc23)n1 [Compound 45b]			activity on TOPFLASH Wnt-ß-catenin reporter ([4]; 10 μM, 24 hours co-treatment): no detectable activity; also recorded: lack of inhibition; pIC50 (Smo wt): 5.96; pIC50 ([5]; C3H10T1/2 cells overexpressing mouse Smo D477H, read-out: inhibition of Smo D473H mutant (dose-response, Fig 7G)): 5.51; shift at D473H mutant relative to WT ([5]; D473H vs WT): 2.7 fold
5.28	yes	well-behaved antagonists	4.23	4.95	NC(=O)c1ccc(-c2cc(NCc3ccccn3)nc3[nH]ccc23)o1 [Compound 244]	> 50	yes	Binding (yes/no), BODIPY-cyclopamine displacement (mouse Smoothened): yes
					CCC(C)n1ncn(-c2ccc(N3CCN(c4ccc(OCC5COC(Cn6cncn6)(c6ccc(Cl)cc6Cl)O5)cc4)CC3)cc2)c1=O (stereo not drawn) [itraconazole]			radius of colloidal particles by DLS ([6]; DMEM): 180 nm; effect of centrifugation on antagonism of Smo (Smoothened): disrupted by prior-centrifugation; also recorded: largely or entirely eliminated
					CN(C(=O)c1ccc(F)cc1C(F)(F)F)C1CCN(c2nnc(-c3ccnn3C)c3ccccc23)CC1 [taladegib]			efficacy in the resistant mutants (Smo mutations at D473): unaffected or have minor drop in efficacy
					CS(=O)(=O)c1ccc(C(=O)Nc2ccc(Cl)c(-c3ccccn3)c2)c(Cl)c1 [vismodegib, reference compound]			activity on TOPFLASH Wnt-ß-catenin reporter ([4]; 100 nM): lack of inhibition; pIC50 [1]: 7.51; particle formation by DLS [6]: does not form particles; reduction of binding to Smo by D473H mutation (D473H mutant of Smo): 100 folds; pIC50 ([3]; read-out: IC50 mGli1 qPCR (range, n)): 8.74
